Tests used:
[1] = system: human blood; assay: Blood compatibility study (haemolysis)
Protocol: This study was carried out by Biochemical Pharmacology department at Inveresk Research, Scotland, in order to assess the suitability of Aurograb for intravenous administration.
Blood samples were taken from healthy human volunteers, transferred to tubes containing Aurograb, Aurograb vehicle, saponin or saline and incubated at 37° C. for 1 hour. After centrifugation, the amount of haemoglobin in the supernatant was then assessed to determine haemolysis.

[2] = system: EMRSA strains; assay: MIC of vancomycin or flucloxacillin with and without Aurograb (Table 3a); type: cell-based, S. aureus; details: Staphylococcus aureus; all EMRSA strains; read-out: MIC of flucloxacillin
Protocol: Strains of MRSA were grown overnight in nutrient broth and diluted to give an inoculum of 1×10^3 cells per mL. […] Cultures were incubated for a further 2 days. The minimum growth-inhibitory concentration (MIC) is defined as the […] concentration of antibiotic at which no bacterial growth occurs and is determined by spectrophotometric evaluation of the lack of turbidity (growth) in culture. MICs were determined in the presence of exogenous Aurograb or in the presence of Aurograb formulation buffer (negative control).
The experiments were also performed using flucloxacillin instead of vancomycin to investigate how the efficacy of penicillin-type […] was affected by Aurograb.

Molecule | Haemolysis classification (ASTM F756-93) [1] | MIC [2] [µg/mL]
saponin | severely haemolytic | –
Cc1onc(-c2c(F)cccc2Cl)c1C(=O)N[C@@H]1C(=O)N2[C@@H]1SC(C)(C)[C@@H]2C(=O)O [flucloxacillin] | – | > 256
